The source of these data is US20150133493A1, “COUMARIN-BASED COMPOUNDS FOR THE TREATMENT OF ALZHEIMER'S DISEASE AND CANCER” (Sloan-Kettering Institute for Cancer Research, priority 2008, published 2015).

The target in assay [1] is T1, γ-secretase (Homo sapiens, UniProt P49768).
T1 construct: endogenous in cells
Description: In vitro γ-secretase activity assay, Aβ42 production (ECL). Conditions: in vitro inhibition of γ-secretase activity that generates Aβ42; 2.5 hr at 37° C., ECL detection. The format is biochemical. The procedure:
FIG. 2. In vitro characterization of coumarin-dimer allosteric GSIs against various γ-secretase cleavage products. […] The IC50 values were calculated from the dose response curves using a non-linear regression analysis in Prism software. […] The three β-amyloid-detection in vitro assays were modified from our previously reported assay (21) using a biotinylated substrate that eliminated the requirement of anti-β-amyloid biotinylated antibody. Ruthenylated antibodies that detected the -40, -42, or -38 cleavage site were incorporated to detect proteolysis indicative of γ-secretase activity. In vitro Notch assay utilized a recombinant transmembrane portion of the Notch peptide and anti-Notch1 SM320 antibody in conjunction with ruthenylated anti-rabbit secondary antibodies. Electrochemiluminescence was quantified on an Analyzer (BioVeris).
Briefly, recombinant peptide substrate was incubated with γ-secretase (40 μg/ml) in the presence or absence of test compound. […] The reaction was incubated for 2.5 hr at 37° C. and stopped by adding RIPA buffer (150 mM NaCl, 1.0% NP-40, 0.5% sodium deoxycholate, 0.1% SDS, 50 mM Tris HCl, pH 8.0). […] The amount of product was determined using synthetic peptide or recombinant standards.
(§1) Cell membranes and solubilized γ-secretase were prepared as described previously (36). The in vitro and cell γ-secretase assays detecting either Aβ38, Aβ40, or Aβ42 cleavage were performed similar as previously described (21, 36). Cleaved product was detected using ruthenylated antibodies that recognize specific APP cleavage sites (Aβ31-38*, G2-10*, or G2-11* antibody for Aβ38, Aβ40, or Aβ42 respectively). The Km and Vmax in the presence and absence of γ-secretase inhibitors were analyzed by non-linear curve fit using the software SigmaPlot 8.0 with the Michaelis-Menten equation (v=Vm [S]/(Km+[S]; v: initial rate; Vm: maximum velocity; Km: the Michaelis-Menten constant, S: substrate).

The target in assay [2] is T1, γ-secretase. Description: In vitro γ-secretase activity assay, Aβ40 production (ECL). The format is biochemical. Conditions: for IC50: in vitro inhibition of γ-secretase activity that generates Aβ40, 2.5 hr at 37° C., ECL detection; for Aβ40/Aβ42 ratio: ratio of IC50 for Aβ40 to IC50 for Aβ42. The procedure:
FIG. 2. In vitro characterization of coumarin-dimer allosteric GSIs against various γ-secretase cleavage products. The potency of 7 unique coumarin-based γ-secretase inhibitors were evaluated for efficacy against γ-secretase-mediated production of Aβ40, Aβ42, Aβ38, and Notch. Additionally, the pan-GSI Compound E was also examined in these assays. The IC50 values were calculated from the dose response curves using a non-linear regression analysis in Prism software. IC50 values are presented with standard deviation (n=3 for each data point). The three β-amyloid-detection in vitro assays were modified from our previously reported assay (21) using a biotinylated substrate that eliminated the requirement of anti-β-amyloid biotinylated antibody. Ruthenylated antibodies that detected the -40, -42, or -38 cleavage site were incorporated to detect proteolysis indicative of γ-secretase activity. In vitro Notch assay utilized a recombinant transmembrane portion of the Notch peptide and anti-Notch1 SM320 antibody in conjunction with ruthenylated anti-rabbit secondary antibodies. Electrochemiluminescence was quantified on an Analyzer (BioVeris). The selectivity ratio for Aβ42 inhibition over Aβ40 and Notch are indicated in the two far right columns.
The assay protocol employed was a modified version of that described in Li et al., 2000, Proc. Nat'l Acad. Sci. USA 97:6183-643, incorporated herein by reference. Briefly, recombinant peptide substrate was incubated with γ-secretase (40 μg/ml) in the presence or absence of test compound. The reaction mixture contained 0.25% CHAPSO, 0.1 μg/μl BSA, protease inhibitor, 50 mM PIPES, pH 7.0, 5 mM MgCl2, 5 mM CaCl2 and 150 mM KCl. The reaction was incubated for 2.5 hr at 37° C. and stopped by adding RIPA buffer (150 mM NaCl, 1.0% NP-40, 0.5% sodium deoxycholate, 0.1% SDS, 50 mM Tris HCl, pH 8.0). The products were detected with various antibody combinations using electrochemiluminescence (ECL) technology as previously described in Li et al., 2000, Proc. Nat'l Acad. Sci. USA 97:6183-643; Lai et al., 2003, J. Biol. Chem. 278: 22475-22481; and Yin et al., 2007, J. Biol. Chem. 282:23639-23644. The amount of product was determined using synthetic peptide or recombinant standards.
as §1

With `O=c1oc2ccccc2c(O)c1C(/C=C/c1cc(F)c(F)c(F)c1)c1c(O)c2ccccc2oc1=O` [(trans)-1], inhibition in assay [1] was half-maximal at 2.9 µM (IC50). Further, in assay [2], the IC50 – broadly, the concentration that gives 50% inhibition – was determined as 3.7 µM and the Aβ40/Aβ42 ratio was found to be 1.3.

Consider `COc1ccc(/C=C/C(c2c(O)c3ccccc3oc2=O)c2c(O)c3ccccc3oc2=O)cc1` [(trans)-258], for which the midpoint of inhibition in assay [1], the IC50, lay at 5.6 µM. In addition, in assay [2], the concentration for half-maximal inhibition (IC50) was determined as 21.5 µM and the Aβ40/Aβ42 ratio turned out to be 3.8.

`O=c1[nH]c2ccccc2c(O)c1C(c1cc(F)c(F)c(F)c1)c1c(O)c2ccccc2[nH]c1=O` [Compound 45] gave an IC50 in assay [1] of 3.4 µM. Also, in assay [2], the IC50 was 8 µM and the Aβ40/Aβ42 ratio is given as 2.4.

Consider `O=c1sc2ccccc2c(O)c1C(c1cc(F)c(F)c(F)c1)c1c(O)c2ccccc2sc1=O` [Compound 53], for which the values for the concentration for half-maximal inhibition (IC50) in assay [1] and in assay [2] were 0.5 µM and 1.3 µM, respectively. Besides, the Aβ40/Aβ42 ratio in assay [2] is 2.6.

Take `O=c1oc2ccccc2c(O)c1C(c1cc(F)cc(F)c1)c1c(O)c2ccccc2oc1=O` [Compound 61]: in assay [1], the IC50 is 0.17 µM. Besides, in assay [2], the IC50 is 0.34 µM and the Aβ40/Aβ42 ratio turned out to be 2.0.

In turn, `COc1ccc(C(c2c(O)c3ccccc3oc2=O)c2c(O)c3ccccc3oc2=O)cc1F` [Compound 77] displayed an IC50 in assay [1] of 2.8 µM. Further, in assay [2], the IC50 was 6.2 µM and the Aβ40/Aβ42 ratio worked out at 2.2.

On to `Cc1ccc2oc(=O)c(C(c3cc(F)c(F)c(F)c3)c3c(O)c4cc(C)ccc4oc3=O)c(O)c2c1` [Compound 197], for which the midpoint of inhibition in assay [1], the IC50, lay at 1.59 µM. In assay [2], the IC50 was 3.26 µM and the Aβ40/Aβ42 ratio was 2.1.

Turning to `O=c1oc2ccccc2c(O)c1C(Cc1ccc(F)cc1)c1c(O)c2ccccc2oc1=O` [Compound 199], 0.9 µM corresponded to half-maximal inhibition in assay [1] (IC50). Moreover, in assay [2], the half-maximal inhibitory concentration (IC50) stood at 4 µM and the Aβ40/Aβ42 ratio came out at 4.4.

Take `O=c1oc2ccc(F)cc2c(O)c1C(c1cc(F)c(F)c(F)c1)c1c(O)c2cc(F)ccc2oc1=O` [Compound 203]: the midpoint of inhibition in assay [1], the IC50, lay at 0.9 µM. For the same compound, in assay [2], the IC50 is 2.6 µM and the Aβ40/Aβ42 ratio was 2.9.

Compound `O=c1oc2ccccc2c(O)c1C(c1cccc(C(F)(F)F)c1)c1c(O)c2ccccc2oc1=O` [Compound 209] registered a half-maximal inhibitory concentration (IC50) in assay [1] of 0.8 µM. In addition, in assay [2], the IC50 came to 2 µM and the Aβ40/Aβ42 ratio came out at 2.5.

On to `CCc1ccc(C(c2c(O)c3ccccc3oc2=O)c2c(O)c3ccccc3oc2=O)cc1` [Compound 210], for which the concentration for half-maximal inhibition (IC50) in assay [1] came to 1.9 µM. In assay [2], the 50% inhibitory concentration (IC50) stood at 4.6 µM and the Aβ40/Aβ42 ratio amounted to 2.4.

`C/C=C/C=C/C(c1c(O)c2ccccc2oc1=O)c1c(O)c2ccccc2oc1=O` [Compound 257] returned an IC50 in assay [1] of 7.3 µM. In assay [2], the IC50 turned out to be 9.9 µM and the Aβ40/Aβ42 ratio is on record as 1.4.

`O=c1oc2ccccc2c(O)c1C1c2cc(F)c(F)cc2Oc2c1c(=O)oc1ccccc21` (stereo not shown) [Compound 369] had an IC50 in assay [1] of 0.9 µM. In addition, in assay [2], the IC50 is 2.6 µM and the Aβ40/Aβ42 ratio is 2.9.

`Nc1ccc2c(c1)Oc1c(c(=O)oc3ccccc13)C2c1c(O)c2ccccc2oc1=O` (stereo not shown) [Compound 372]: the half-maximal inhibitory concentration (IC50) in assay [1] stood at 9.9 µM. Further, in assay [2], the IC50 was 19.4 µM and the Aβ40/Aβ42 ratio is reported as 2.0.

As for `O=c1oc2ccccc2c(O)c1C1c2c(F)c(F)c(F)c(F)c2Oc2c1c(=O)oc1ccccc21` (stereo not shown) [Compound 423], in assay [1], the IC50 turned out to be 1.3 µM. Also, in assay [2], the 50% inhibitory concentration (IC50) was 3.4 µM and the Aβ40/Aβ42 ratio is 2.6.

In assay [1], `O=C(Cc1cc(F)cc(F)c1)c1c(O)c2ccccc2oc1=O` [Compound 560] showed a concentration for half-maximal inhibition (IC50) of 26.9 µM. Besides, in assay [2], the IC50 turned out to be 89.9 µM and the Aβ40/Aβ42 ratio amounted to 3.3.

Turning to `O=c1oc2ccccc2c(O)c1C(c1ccc(C(F)(F)F)cc1)c1c(O)c2ccccc2oc1=O` [Compound 728], in assay [1], half-maximal inhibition (IC50) was put at 1.6 µM. Further, in assay [2], the half-inhibitory concentration (IC50) came to 7 µM and the Aβ40/Aβ42 ratio stood at 4.4.

Regarding `CC(=O)Nc1ccc(C(c2c(O)c3ccccc3oc2=O)c2c(O)c3ccccc3oc2=O)cc1` [Compound 732], it took 15.9 µM to reach half-maximal inhibition in assay [1] (IC50). For the same compound, in assay [2], the IC50 worked out at 63.9 µM and the Aβ40/Aβ42 ratio is 4.0.

Regarding `O=c1oc2ccccc2c(O)c1C(c1c(O)c2ccccc2oc1=O)C1CCCCC1` [Compound 733], in assay [1], half-maximal inhibition (IC50) was put at 1.2 µM. Also, in assay [2], the IC50 turned out to be 4.2 µM and the Aβ40/Aβ42 ratio is on record as 3.5.

As for `O=c1oc2ccccc2c(O)c1C(c1ccccc1F)c1c(O)c2ccccc2oc1=O` [Compound 734], the values for the IC50 in assay [1] and in assay [2] were 7.2 µM and 1.95 µM, respectively. The Aβ40/Aβ42 ratio in assay [2] worked out at 0.3.

As for `Oc1ccnc(O)c1C(c1cc(F)c(F)c(F)c1)c1c(O)ccnc1O` [Compound 738], the IC50 in assay [1] and in assay [2] was greater than 100 µM each time.

In the case of `O=c1oc2ccccc2c(O)c1Cc1cc(F)c(F)c(F)c1` [compound 476], the IC50 in assay [1] and in assay [2] was greater than 100 µM throughout.

As to `O=C(CC(c1cc(F)c(F)c(F)c1)c1c(O)c2ccccc2oc1=O)NCc1cc(F)cc(F)c1` (stereo not shown) [compound 512], the values for the IC50 in assay [1] and in assay [2] were 1.24 µM and 1.86 µM, respectively. Moreover, the Aβ40/Aβ42 ratio in assay [2] came out at 1.5.

On to `O=C(Cc1cc(F)cc(F)c1)NCCNC(=O)CC(c1cc(F)c(F)c(F)c1)c1c(O)c2ccccc2oc1=O` (stereo not shown) [compound 520], for which half-maximal inhibition in assay [1] (IC50) required 4.53 µM. In addition, in assay [2], the IC50 came out at 9.23 µM and the Aβ40/Aβ42 ratio is 2.0.

`Cc1coc(=O)c(C(c2cc(F)c(F)c(F)c2)c2c(O)c(C)coc2=O)c1O` [compound 668]: the IC50 in assay [1] turned out to be 1.7 µM. Besides, in assay [2], the IC50 was found to be 4.2 µM and the Aβ40/Aβ42 ratio was 2.5.

`O=c1oc2ccccc2c(O)c1C(c1ccc(Cl)cc1)c1c(O)c2ccccc2oc1=O` [compound 729] yielded an IC50 in assay [1] of 1.2 µM. Also, in assay [2], the IC50 was determined as 1.7 µM and the Aβ40/Aβ42 ratio was 1.4.

`O=c1oc2ccccc2c(O)c1C(c1ccc(Br)cc1)c1c(O)c2ccccc2oc1=O` [compound 730] came in with a half-inhibitory concentration (IC50) in assay [1] of 1.2 µM. Moreover, in assay [2], the IC50 was 1.7 µM and the Aβ40/Aβ42 ratio is on record as 1.4.

As for `O=c1oc2ccccc2c(O)c1C(c1ccc(I)cc1)c1c(O)c2ccccc2oc1=O` [compound 731], the IC50 in assay [1] was determined as 1.5 µM. Also, in assay [2], the IC50 is 6.1 µM and the Aβ40/Aβ42 ratio stood at 4.1.
